Data reported in paper PMC12251151, “Understanding Anti-Obesity Potential of Four Porphyrin Compounds by Investigating Pancreatic Lipase Inhibition” (Molecules, 2025).
Like-named read-outs stand apart in the source and are kept apart here.

Tests used:
pancreatic lipase (PL) [1] = molecular target: T1, pancreatic lipase (PL) (Sus scrofa, UniProt P00591); assay: In vitro stability (temperature and acid-base pre-treatment, then PL inhibition); assay type: physicochemical, porcine; settings: 20 min treatment with buffers pH 2.0-10.0
T1 construct: lipase (porcine pancreas); purchased Shanghai Yuanye Co., Ltd., Shanghai, China; host or cells: porcine pancreas
T1 sequence (P00591 1-450): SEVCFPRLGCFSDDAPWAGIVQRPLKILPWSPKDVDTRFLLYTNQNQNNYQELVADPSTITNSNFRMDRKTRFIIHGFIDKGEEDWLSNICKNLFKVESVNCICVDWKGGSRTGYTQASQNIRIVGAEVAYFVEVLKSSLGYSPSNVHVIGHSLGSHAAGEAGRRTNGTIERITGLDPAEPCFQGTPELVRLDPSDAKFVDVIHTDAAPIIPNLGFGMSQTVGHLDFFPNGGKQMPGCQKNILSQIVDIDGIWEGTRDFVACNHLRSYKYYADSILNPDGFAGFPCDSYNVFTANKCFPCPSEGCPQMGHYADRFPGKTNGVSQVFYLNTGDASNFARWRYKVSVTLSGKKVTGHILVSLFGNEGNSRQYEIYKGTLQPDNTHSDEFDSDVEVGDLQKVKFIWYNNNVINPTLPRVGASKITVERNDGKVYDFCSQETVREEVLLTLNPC
Procedure: Temperature stability study. Sample pre-treatment: 1000 μL samples were bathed in water at different temperatures (30, 40, 50, 60, 70, 80, 90, 100 °C) for 20 min, and cooled rapidly.
Acid-base stability study. Sample pre-treatment: 1000 μL samples were treated with buffers of different pH (2.0, 3.0, 4.0, 5.0, 6.0, 7.0, 8.0, 9.0, and 10.0) for 20 min, and then the pH was adjusted back to 6.9–7.3.
PL inhibition experiments were the same as Section 3.2.1. A total of 200 μL pre-treated four porphyrin compounds, 500 μL of 4-nitrophenyl laurate (0.80 mg/mL), 400 μL of Tris-HCl buffer (pH 8.2, 0.1 mol/L), and 300 μL of pancreatic lipase (5 mg/mL) were reacted in an incubator at 37 °C for 2 h. The reaction solution was centrifuged at 12,000 rpm for 5 min, and 200 μL of the supernatant was added to a 96-well plate. The absorbance at 420 nm was measured. The temperature stability range was determined by comparing the inhibition rate of the samples treated at different temperatures. The range of acid-base stability was determined by comparing the changes in inhibition rate.

pancreatic lipase (PL) [2] = molecular target: T1, pancreatic lipase (PL); assay: Fluorescence quenching and binding interaction with PL (Stern-Volmer, double logarithmic, Van't Hoff); design: species or system porcine; settings: for Fluorescence quenching mechanism on PL: Stern-Volmer analysis; for Fluorescence quenching mechanism on PL / ΔH^0 / ΔS^0: 298-310 K; for ΔH^0 / ΔS^0: Van't Hoff; for Main driving forces of binding to PL: from signs of ΔH^0 and ΔS^0; for Kd: read-out: Ka (binding constant) (converted)
From the text: Judged by the Stern–Volmer equation, the formula is referred to (3):(3) F0/F=1+KSV[Q]=1+Kqτ0[Q],
The modified Stern–Volmer equation [34], formula reference (4):(4) F0/F=e^KSV[Q]=e^Kqτ0[Q],
The double logarithmic equation:(5) logF0−F/F=logKa+nlog[Q],
In the formula, F0 and F are the fluorescence intensities of the enzyme before and after the addition of four porphyrin compounds. KSV and Kq represent the fluorescence quenching constant and the quenching rate constant, respectively. τ0 (10^−8 s) is the average lifetime of the fluorescent molecule in the absence of the fluorescence quencher. [Q] denotes the concentration of the porphyrin compound. Ka is the binding constant. n is the number of binding sites.
The relevant thermodynamic parameters were calculated by Equations (6) and (7), and the Van’t Hoff curves of four porphyrin compounds and enzymes were obtained:(6) lnKa=−ΔH^0/RT+ΔS^0/R, (7) ΔG^0=ΔH^0−TΔS^0=−RTlnKa,
The method of Li et al. was referred to and appropriate changes were made. A series of concentrations of porphyrin compounds were mixed with pancreatic lipase (5 mg/mL) at a volume ratio of 1:1 and incubated at 298, 304, and 310 K for 5 min. The excitation wavelength of the Hitachi fluorescence spectrometer F-7000 ([…], Japan) was set to 280 nm, the slit width was set to 5 nm, and the scanning range was set to 300–500 nm. In order to eliminate the influence of ‘internal filtering effect’ [42], the following formula is used for correction. Fcor=Fobse^(Aex+Aem)/2 , where Fcor and Fobs are the corrected fluorescence intensity and the experimentally measured fluorescence intensity, and Aex and Aem are the UV absorption values of the system at the excitation and emission wavelengths, respectively.

SMILES | pH range in which PL inhibitory activity changed little (acid-base stability) (pancreatic lipase (PL) [1]) | Fluorescence quenching mechanism on PL (pancreatic lipase (PL) [2]) | Kq (quenching rate constant) (pancreatic lipase (PL) [2]; T 298 K) | Ksv (fluorescence quenching constant) (pancreatic lipase (PL) [2]; T 298 K) | n (number of binding sites) (pancreatic lipase (PL) [2]; T 298 K) | ΔG^0 (pancreatic lipase (PL) [2]; T 298 K) | Kq (quenching rate constant) (pancreatic lipase (PL) [2]; T 304 K) | Ksv (fluorescence quenching constant) (pancreatic lipase (PL) [2]; T 304 K) | n (number of binding sites) (pancreatic lipase (PL) [2]; T 304 K) | ΔG^0 (pancreatic lipase (PL) [2]; T 304 K) | Kq (quenching rate constant) (pancreatic lipase (PL) [2]; T 310 K) | Ksv (fluorescence quenching constant) (pancreatic lipase (PL) [2]; T 310 K) | n (number of binding sites) (pancreatic lipase (PL) [2]; T 310 K) | ΔG^0 (pancreatic lipase (PL) [2]; T 310 K) | ΔH^0 (pancreatic lipase (PL) [2]) | ΔS^0 (pancreatic lipase (PL) [2]) | Main driving forces of binding to PL (pancreatic lipase (PL) [2]) | Kd (pancreatic lipase (PL) [2]; T 298 K) | Kd (pancreatic lipase (PL) [2]; T 304 K) | Kd (pancreatic lipase (PL) [2]; T 310 K) | other results
O=C([O-])c1ccc(C2=C3C=CC(=N3)C(c3ccc(C(=O)[O-])cc3)=C3C=CC(=N3)C(=c3ccc(=C([O-])[O-])cc3)c3ccc([n-]3)C(c3ccc(C(=O)[O-])cc3)=C3C=CC2=N3)cc1.[67Cu+2].[H+].[H+].[H+].[H+] [Cu-TCPP, Cu (II) meso-Tetra (4-carboxyphenyl) porphine] | 2.0~10.0 pH | static quenching | 2.36 ± 0.01 ×10^12 L/mol/s | 2.36 ± 0.01 ×10^4 L/mol | 0.93 | -23.56 ± 0.08 kJ/mol | 2.33 ± 0.03 ×10^12 L/mol/s | 2.33 ± 0.03 ×10^4 L/mol | 0.95 | -24.48 ± 0.05 kJ/mol | 2.32 ± 0.03 ×10^12 L/mol/s | 2.32 ± 0.03 ×10^4 L/mol | 0.97 | -25.37 ± 0.05 kJ/mol | 21.34 ± 0.04 kJ/mol | 150.70 ± 0.07 J/mol/k | hydrophobic forces | – | – | – | Ka (binding constant) (pancreatic lipase (PL) [2]; T 298 K): 0.13 ± 0.01 ×10^5 L/mol; Ka (binding constant) (pancreatic lipase (PL) [2]; T 304 K): 0.16 ± 0.01 ×10^5 L/mol; Ka (binding constant) (pancreatic lipase (PL) [2]; T 310 K): 0.19 ± 0.01 ×10^5 L/mol
Nc1ccc(-c2c3nc(c(-c4ccc(N)cc4)c4ccc([nH]4)c(-c4ccc(N)cc4)c4nc(c(-c5ccc(N)cc5)c5ccc2[nH]5)C=C4)C=C3)cc1 [TAPP, 5,10,15,20-Tetrakis (4-aminophenyl) porphyrin] | 2.0~9.0 pH | static quenching | 9.70 ± 0.11 ×10^12 L/mol/s | 9.70 ± 0.11 ×10^4 L/mol | 1.05 | -29.78 ± 0.05 kJ/mol | 8.80 ± 0.06 ×10^12 L/mol/s | 8.80 ± 0.06 ×10^4 L/mol | 1.01 | -29.03 ± 0.07 kJ/mol | 8.17 ± 0.08 ×10^12 L/mol/s | 8.17 ± 0.08 ×10^4 L/mol | 0.96 | -28.06 ± 0.06 kJ/mol | -72.32 ± 0.05 kJ/mol | −142.66 ± 0.06 J/mol/k | hydrogen bonds and van der Waals forces | 6020 nM | 10300 nM | 18500 nM | –
O=C(O)c1ccc(-c2c3nc(c(-c4ccc(C(=O)O)cc4)c4ccc([nH]4)c(-c4ccc(C(=O)O)cc4)c4nc(c(-c5ccc(C(=O)O)cc5)c5ccc2[nH]5)C=C4)C=C3)cc1 [TCPP, meso-Tetra (4-carboxyphenyl) porphine] | 2.0~10.0 pH | static quenching | 4.60 ± 0.07 ×10^12 L/mol/s | 4.60 ± 0.07 ×10^4 L/mol | 1.30 | -33.79 ± 0.04 kJ/mol | 4.59 ± 0.06 ×10^12 L/mol/s | 4.59 ± 0.06 ×10^4 L/mol | 1.26 | -33.24 ± 0.13 kJ/mol | 4.50 ± 0.06 ×10^12 L/mol/s | 4.50 ± 0.06 ×10^4 L/mol | 1.16 | -32.38 ± 0.08 kJ/mol | -68.59 ± 0.07 kJ/mol | −116.60 ± 0.11 J/mol/k | hydrogen bonds and van der Waals forces | 1190 nM | 1940 nM | 3500 nM | –
Oc1ccc(-c2c3nc(c(-c4ccc(O)cc4)c4ccc([nH]4)c(-c4ccc(O)cc4)c4nc(c(-c5ccc(O)cc5)c5ccc2[nH]5)C=C4)C=C3)cc1 [THPP, 5,10,15,20-Tetrakis (4-hydroxyphenyl) porphyrin] | 2.0~10.0 pH | mixed quenching dominated by static quenching and supplemented by dynamic quenching | 1.36 ± 0.02 ×10^12 L/mol/s | 1.36 ± 0.02 ×10^4 L/mol | 1.52 | -37.28 ± 0.17 kJ/mol | 1.17 ± 0.03 ×10^12 L/mol/s | 1.17 ± 0.03 ×10^4 L/mol | 1.38 | -34.99 ± 0.11 kJ/mol | 1.11 ± 0.04 ×10^12 L/mol/s | 1.11 ± 0.04 ×10^4 L/mol | 1.33 | -33.57 ± 0.09 kJ/mol | -129.48 ± 0.11 kJ/mol | −309.86 ± 0.12 J/mol/k | hydrogen bonds and van der Waals forces | 292 nM | 968 nM | 2200 nM | –
